In US11236086B2, “Substituted pyrrolopyridines as inhibitors of activin receptor-like kinase” (BLUEPRINT MEDICINES CORPORATION, priority 2017, dated 2022):

Target: T1, ALK2R206H (mutant ALK2, N-terminally tagged with GST) (Homo sapiens, UniProt Q04771, R206H)
T1 construct: purchased Carna Bioscience or ThermoFisher 09-148 or PV6232
T1 sequence (Q04771 21-509 R206H): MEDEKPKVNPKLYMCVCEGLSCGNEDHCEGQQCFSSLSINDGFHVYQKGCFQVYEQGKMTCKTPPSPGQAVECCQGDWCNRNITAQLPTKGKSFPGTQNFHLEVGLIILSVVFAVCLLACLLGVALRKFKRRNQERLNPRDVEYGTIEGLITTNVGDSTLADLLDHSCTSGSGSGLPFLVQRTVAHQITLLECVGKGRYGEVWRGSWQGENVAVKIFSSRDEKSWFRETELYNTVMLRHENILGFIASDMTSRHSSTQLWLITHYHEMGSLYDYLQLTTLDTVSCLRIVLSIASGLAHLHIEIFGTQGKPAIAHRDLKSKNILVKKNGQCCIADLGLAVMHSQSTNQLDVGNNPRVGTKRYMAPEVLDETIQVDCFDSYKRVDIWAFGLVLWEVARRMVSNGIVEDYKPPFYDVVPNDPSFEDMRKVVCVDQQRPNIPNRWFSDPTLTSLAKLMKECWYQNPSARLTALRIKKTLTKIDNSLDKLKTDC
Assay: ALK binding assay (LANTHASCREEN TR-FRET competitive binding, displacement of Kinase Tracer 178)
Settings: read-out: Binding Assay (IC50 class)
Description: Example 10 ALK Binding Assays
Binding assays were conducted using the LANTHASCREEN® technology (ThermoFisher Scientific). LANTHASCREEN® is a competitive binding, displacement assay where the assumed steady state occupancy of the binding site is measured using a time-resolved, fluorescence energy transfer (TR-FRET) readout between a fluorescent tracer and Europium (Eu)-tagged antibody specific for the kinase or expression tag (e.g., GST) of interest. Displacement of the tracer by a compound of the disclosure reduces, and is directly proportional to, the TR-FRET between the tracer and the antibody. Tracer was used at a concentration equal to or near to its Kd for the kinase. The Eu-tagged antibody was typically used in excess to ensure sampling of all competent protein capable of binding the tracer.
For these assays, a mutant ALK2 was used that was N-terminally tagged with GST (ALK2R206H Carna Bioscience (09-148) or ALK2R206H ThermoFisher (PV6232)); a Eu-tagged anti-GST antibody (ThermoFisher) and Kinase Tracer 178 (ThermoFisher).
In all cases, the kinase (2-5 nM) was mixed with Eu-tagged antibody (4-10 nM) mix and tracer (50 nM) were incubated with test compound titrations prepared in 100% DMSO (1% DMSO final) for 30 minutes at room temperature. All reagents and compounds were dissolved in Kinase Buffer A (ThermoFisher) to achieve the final concentration. The plates were read on a PerkinElmer EnVision® multilabel plate reader or a BioTek Synergy Neo plate reader, and the assay signal was represented as a ratio of the TR-FRET emission (λex 330 nm, λ^em […] and λ^em 665 nm). This readout was normalized to 0% and 100% inhibited control wells, plotted against inhibitor concentration, and fitted to a 4-parameter log dose response curve.
The results of this assay are shown in Table 3 in the column labelled “Binding Assay” wherein “A” represents an IC50 of less than or equal to 10 nM; “B” represents an IC50 of greater than 10 nM and less than or equal to 50 nM; and “C” represents an IC50 of greater than 50 nM. Blank values in the table indicate that the particular compound was not tested in this assay.

| Compound | IC50 [nM] |
| --- | --- |
| O=C(C1CC1)N1CCN(c2ccnc3[nH]c(-c4ccccc4)cc23)CC1 [Compound 3] | 10 to 50 |
| O=C(C1CC1)N1CCN(c2ccnc3[nH]c(-c4cccnc4)cc23)CC1 [Compound 4] | 10 to 50 |
| Cn1cc(-c2cc3c(N4CCN(C(=O)CC#N)CC4)ccnc3[nH]2)cn1 [Compound 5] | 10 to 50 |
| CCOC(=O)N1CCN(c2ccnc3[nH]c(-c4ncccn4)cc23)CC1 [Compound 9] | ≤ 10 |
| CC(C)C(=O)N1CCN(c2ccnc3[nH]c(-c4cnn(C)c4)cc23)CC1 [Compound 10] | 10 to 50 |
| Cc1ccccc1-c1cc2c(N3CCN(C(=O)C4CC4)CC3)ccnc2[nH]1 [Compound 14] | > 50 |
| Cc1cccc(-c2cc3c(N4CCN(C(=O)C5CC5)CC4)ccnc3[nH]2)c1 [Compound 15] | 10 to 50 |
| Cc1ccc(-c2cc3c(N4CCN(C(=O)C5CC5)CC4)ccnc3[nH]2)cc1 [Compound 16] | 10 to 50 |
| O=C(C1CC1)N1CCN(c2ccnc3[nH]c(-c4cccc(F)c4)cc23)CC1 [Compound 17] | 10 to 50 |
| O=C(C1CC1)N1CCN(c2ccnc3[nH]c(-c4ccccc4F)cc23)CC1 [Compound 18] | 10 to 50 |
| Cn1cc(-c2cc3c(N4CCN(C(=O)C5CCC5)CC4)ccnc3[nH]2)cn1 [Compound 20] | ≤ 10 |
| Cc1c(-c2cc3c(N4CCN(C(=O)C5CC5)CC4)ccnc3[nH]2)cnn1C [Compound 22] | 10 to 50 |
| CCOC(=O)N1CCN(c2ccnc3[nH]c(-c4cc(C)ccn4)cc23)CC1 [Compound 25] | ≤ 10 |
| CCOC(=O)N1CCN(c2ccnc3[nH]c(-c4ccc(C)nc4)cc23)CC1 [Compound 27] | ≤ 10 |
| CCOC(=O)N1CCN(c2ccnc3[nH]c(-c4cnc(C)nc4)cc23)CC1 [Compound 31] | 10 to 50 |
| O=C(OC1COC1)N1CCN(c2ccnc3[nH]c(-c4cn[nH]c4)cc23)CC1 [Compound 36] | ≤ 10 |
| CCOC(=O)N1CCN(c2ccnc3[nH]c(-c4nn(C)cc4C)cc23)CC1 [Compound 42] | 10 to 50 |
| CCOCC(=O)N1CCN(c2ccnc3[nH]c(-c4cnn(C)c4)cc23)CC1 [Compound 43] | > 50 |
| N#Cc1cccc(-c2cc3c(N4CCN(C(=O)C5CC5)CC4)ccnc3[nH]2)c1 [Compound 44] | 10 to 50 |
| CCOC(=O)N1CCN(c2ccnc3[nH]c(-c4cc(C)ns4)cc23)CC1 [Compound 47] | ≤ 10 |
| O=C(C1CC1)N1CCN(c2ccnc3[nH]c(-c4ccc(CO)cc4)cc23)CC1 [Compound 57] | ≤ 10 |
| COc1ccccc1-c1cc2c(N3CCN(C(=O)C4CC4)CC3)ccnc2[nH]1 [Compound 58] | > 50 |

| Compound | IC50 [nM] |
| --- | --- |
| CCOC(=O)N1CCN(c2ccnc3[nH]c(-c4ncc(C#N)cn4)cc23)CC1 [Compound 61] | ≤ 10 |
| COc1ccc(-c2cc3c(N4CCN(C(=O)C5CC5)CC4)ccnc3[nH]2)cn1 [Compound 62] | 10 to 50 |
| Cc1ccc(-c2cc3c(N4CCN(C(=O)C5CC5)CC4)ccnc3[nH]2)c(F)c1 [Compound 63] | 10 to 50 |
| CCOC(=O)N1CCN(c2ccnc3[nH]c(-c4nn(C)cc4C#N)cc23)CC1 [Compound 72] | 10 to 50 |
| O=C(OC1COC1)N1CCN(c2ccnc3[nH]c(-c4ncccn4)cc23)CC1 [Compound 73] | ≤ 10 |
| O=C(OC1COC1)N1CCN(c2ccnc3[nH]c(-c4cnccn4)cc23)CC1 [Compound 74] | 10 to 50 |
| Cn1cc(-c2cc3c(N4CCN(C(=O)[C@H]5CCOC5)CC4)ccnc3[nH]2)cn1 [Compound 78] | ≤ 10 |
| Cn1cc(-c2cc3c(N4CCN(C(=O)[C@@H]5CCOC5)CC4)ccnc3[nH]2)cn1 [Compound 79] | ≤ 10 |
| Cn1cc(-c2cc3c(N4CCN(C(=O)OCC5CC5)CC4)ccnc3[nH]2)cn1 [Compound 80] | ≤ 10 |
| Cn1cc(-c2cc3c(N4CCN(C(=O)[C@@H]5CCCO5)CC4)ccnc3[nH]2)cn1 [Compound 81] | 10 to 50 |
| CCC(C)CC(=O)N1CCN(c2ccnc3[nH]c(-c4cnn(C)c4)cc23)CC1 (centres unmarked) [Compound 83] | 10 to 50 |
| O=C(C1CC1)N1CCN(c2ccnc3[nH]c(-c4ccc(Cl)cc4)cc23)CC1 [Compound 84] | 10 to 50 |
| CCOC(=O)N1CCN(c2ccnc3[nH]c(-c4cccc(OC)n4)cc23)CC1 [Compound 85] | ≤ 10 |
| O=C(C1CC1)N1CCN(c2ccnc3[nH]c(-c4ccc(F)cc4F)cc23)CC1 [Compound 87] | 10 to 50 |
| O=C(C1CC1)N1CCN(c2ccnc3[nH]c(-c4cc(F)cc(F)c4)cc23)CC1 [Compound 88] | ≤ 10 |
| Cc1[nH]ncc1-c1cc2c(N3CCN(C(=O)OC4COC4)CC3)ccnc2[nH]1 [Compound 92] | ≤ 10 |
| Cn1cc(-c2cc3c(N4CCN(C(=O)[C@H]5C[C@H](F)C5)CC4)ccnc3[nH]2)cn1 [Compound 94] | ≤ 10 |
| CCOC(=O)N1CCN(c2ccnc3[nH]c(-c4scnc4C#N)cc23)CC1 [Compound 95] | ≤ 10 |
| CCOC(=O)N1CCN(c2ccnc3[nH]c(-c4cnn(C)c4)c(CC)c23)CC1 [Compound 99] | ≤ 10 |
| Cn1cc(-c2cc3c(N4CCN(C(=O)C(C)(C)CO)CC4)ccnc3[nH]2)cn1 [Compound 101] | 10 to 50 |
| Cn1cnc(-c2cc3c(N4CCN(C(=O)OC5COC5)CC4)ccnc3[nH]2)n1 [Compound 106] | 10 to 50 |
| Cc1coc(-c2cc3c(N4CCN(C(=O)OC5COC5)CC4)ccnc3[nH]2)n1 [Compound 107] | 10 to 50 |

| Compound | IC50 [nM] |
| --- | --- |
| Cc1cnc(-c2cc3c(N4CCN(C(=O)OC5COC5)CC4)ccnc3[nH]2)o1 [Compound 108] | 10 to 50 |
| Cc1nnc(-c2cc3c(N4CCN(C(=O)OC5COC5)CC4)ccnc3[nH]2)o1 [Compound 110] | 10 to 50 |
| O=C(C1CC1)N1CCN(c2ccnc3[nH]c(-c4ccc(C5CC5)cc4)cc23)CC1 [Compound 119] | > 50 |
| COc1ccc(-c2cc3c(N4CCN(C(=O)C5CC5)CC4)ccnc3[nH]2)c(F)c1 [Compound 138] | ≤ 10 |
| Cn1cc(-c2cc3c(N4CCN(C(=O)OCCC5CC5)CC4)ccnc3[nH]2)cn1 [Compound 141] | ≤ 10 |
| Cn1cc(-c2cc3c(N4CCN(C(=O)OCC5(C)CC5)CC4)ccnc3[nH]2)cn1 [Compound 142] | ≤ 10 |
| Cn1cc(-c2cc3c(N4CCN(C(=O)OCC5CCC5)CC4)ccnc3[nH]2)cn1 [Compound 143] | ≤ 10 |
| Cn1cc(-c2cc3c(N4CCN(C(=O)O[C@@H]5CCOC5)CC4)ccnc3[nH]2)cn1 [Compound 154] | ≤ 10 |
| Cc1c(-c2cc3c(N4CCN(C(=O)OC5COC5)CC4)ccnc3[nH]2)cnn1C [Compound 156] | ≤ 10 |
| Cc1n[nH]c(C)c1-c1cc2c(N3CCN(C(=O)OC4COC4)CC3)ccnc2[nH]1 [Compound 157] | > 50 |
| Cc1nc(-c2cc3c(N4CCN(C(=O)OC5COC5)CC4)ccnc3[nH]2)oc1C [Compound 158] | ≤ 10 |
| COCCCOC(=O)N1CCN(c2ccnc3[nH]c(-c4cnn(C)c4)cc23)CC1 [Compound 163] | ≤ 10 |
| CCOCCOC(=O)N1CCN(c2ccnc3[nH]c(-c4cnn(C)c4)cc23)CC1 [Compound 164] | ≤ 10 |
| COCC(C)OC(=O)N1CCN(c2ccnc3[nH]c(-c4cnn(C)c4)cc23)CC1 (centres unmarked) [Compound 165] | 10 to 50 |
| CCOC(=O)N1CCN(c2ccnc3[nH]c(-c4cnn(C)c4COC)cc23)CC1 [Compound 166] | 10 to 50 |
| Cc1ccc(-c2cc3c(N4CCN(C(=O)OC5COC5)CC4)ccnc3[nH]2)s1 [Compound 168] | ≤ 10 |
| Cc1nnc(-c2cc3c(N4CCN(C(=O)OC5COC5)CC4)ccnc3[nH]2)s1 [Compound 181] | ≤ 10 |
| Cc1nsc(-c2cc3c(N4CCN(C(=O)OC5COC5)CC4)ccnc3[nH]2)n1 [Compound 182] | 10 to 50 |
| CCC(=O)c1ccc(-c2cc3c(N4CCN(C(=O)C5CC5)CC4)ccnc3[nH]2)cc1 [Compound 184] | ≤ 10 |
| CCCOc1ccc(-c2cc3c(N4CCN(C(=O)C5CC5)CC4)ccnc3[nH]2)cc1 [Compound 196] | 10 to 50 |
| Cn1cc(-c2cc3c(N4CCN(C(=O)CCC5CCCC5)CC4)ccnc3[nH]2)cn1 [Compound 206] | 10 to 50 |
